In brackets after ≈: the same amount, converted by molar mass.
How the values were obtained:
S. epidermidis IFO12293 = experiment: Test on antibacterial action (MIC, standard method of Japan Society of Chemotherapy); assay type: cell-based; conditions: for MIC: Staphylococcus epidermidis, read-out: minimum growth inhibitory concentration (MIC)
Procedure: (§1) (1) Test on Antibacterial Action
(§2) In accordance with the standard method established by Japan Society of Chemotherapy (CHEMOTHERAPY, 29(1),76(1981)), the minimum growth inhibitory concentration (MIC: μg/mL) was measured.

S. aureus 209P = experiment: as above; assay type: cell-based; conditions: for MIC: Staphylococcus aureus, read-out: minimum growth inhibitory concentration (MIC)
Procedure: as §1, §2

P. aeruginosa IFO3445 = experiment: as above; assay type: cell-based; conditions: for MIC: Pseudomonas aeruginosa, read-out: minimum growth inhibitory concentration (MIC)
Procedure: as §1, §2

B. subtilis ATCC6633 = experiment: as above; assay type: cell-based; conditions: for MIC: Bacillus subtilis, read-out: minimum growth inhibitory concentration (MIC)
Procedure: as §1, §2

K. peumoniae KC-1 = experiment: as above; assay type: cell-based; conditions: for MIC: read-out: minimum growth inhibitory concentration (MIC)
Procedure: as §1, §2

E. coli NIHJ-JC2 = experiment: as above; assay type: cell-based; conditions: for MIC: Escherichia coli, NIHJJC2, read-out: minimum growth inhibitory concentration (MIC)
Procedure: as §1, §2

S. aureus Smith = experiment: as above; assay type: cell-based; conditions: for MIC: Staphylococcus aureus, read-out: minimum growth inhibitory concentration (MIC)
Procedure: as §1, §2

MRSA W200 = experiment: as above; assay type: cell-based; conditions: for MIC: Staphylococcus aureus, read-out: minimum growth inhibitory concentration (MIC)
Procedure: as §1, §2

female ICR mouse = experiment: Test on phototoxicity (ear erythema after UV exposure); assay type: in vivo; conditions: 40 mg/kg/10 mL intravenous, UV 320 to 400 nm for 4 hours; for Phototoxicity average score (ears): 0 point no abnormality to 3 points heavy erythema or edema
Procedure: (2) Test on Phototoxicity
The phototoxicity was tested in accordance with the following method.
After intravenous administration (40 mg/kg/10 mL) of each of the test compounds to a female ICR mouse (5-6 week old), the mouse was exposed to ultraviolet rays (320 to 400 nm, 1.8 mW/cm^2/sec) for 4 hours.
no abnormality (0 point); slight erythema (1 point); medium erythema (2 points); and heavy erythema or edema (3 points)

[1] = Test on photostability (UV spectra after UVA exposure of solution); assay type: physicochemical; conditions: solution in 0.08% NaOH diluted 100-fold with PBS(-); UVA (black light) up to 20 minutes; UV spectra 190 to 400 nm
Procedure: (2) Test on Photostability
The test on photostability was made in accordance with the following method.
With 0.08% NaOH, 1 mg/mL of the test compound was prepared. The resulting solution was diluted 100-fold with PBS(−). Into the wells of a 24-well plate, 1.5 ml portions of the diluted solution were poured, respectively. Just after the solution was exposed to UVA under an UV light (black light, product of Toshiba Corporation) for 0, 2, 5, 10 and 20 minutes, UV spectra within a range of 190 to 400 nm were measured (“UV-240”, product of Shimadzu Corporation).

| MIC (S. epidermidis IFO12293) | MIC (S. aureus 209P) | MIC (P. aeruginosa IFO3445) | MIC (B. subtilis ATCC6633) | MIC (K. peumoniae KC-1) | MIC (E. coli NIHJ-JC2) | MIC (S. aureus Smith) | MIC (MRSA W200) | minimum growth inhibitory concentration (MIC) (S. epidermidis IFO12293) | minimum growth inhibitory concentration (MIC) (S. aureus 209P) | minimum growth inhibitory concentration (MIC) (P. aeruginosa IFO3445) | minimum growth inhibitory concentration (MIC) (B. subtilis ATCC6633) | minimum growth inhibitory concentration (MIC) (K. peumoniae KC-1) | minimum growth inhibitory concentration (MIC) (E. coli NIHJ-JC2) | SMILES | Phototoxicity frequency (female ICR mouse; 0 hour after exposure) | Phototoxicity average score (ears) (female ICR mouse; 0 hour after exposure) | Phototoxicity frequency (female ICR mouse; 24 hours after exposure) | Phototoxicity average score (ears) (female ICR mouse; 24 hours after exposure) | Phototoxicity frequency (female ICR mouse; 48 hours after exposure) | Phototoxicity average score (ears) (female ICR mouse; 48 hours after exposure) | further results |
| --- | --- | --- | --- | --- | --- | --- | --- | --- | --- | --- | --- | --- | --- | --- | --- | --- | --- | --- | --- | --- | --- |
| 0.013 µg/mL (≈ 0.0309 µM) | 0.006 µg/mL (≈ 0.0143 µM) | 0.39 µg/mL (≈ 0.928 µM) | 0.025 µg/mL (≈ 0.0595 µM) | 0.05 µg/mL (≈ 0.119 µM) | 0.05 µg/mL (≈ 0.119 µM) | < 0.003 µg/mL | 0.013 µg/mL (≈ 0.0309 µM) | – | – | – | – | – | – | Cc1c(N2CC(O)C2)c(F)cc2c(=O)c(C(=O)O)cn(-c3nc(N)c(F)cc3F)c12 [Compound 1, 1-(6-amino-3,5-difluoropyridin-2-yl)-6-fluoro-7-(3-hydroxyazetidin-1-yl)-8-methyl-1,4-dihydro-4-oxoquinoline-3-carboxylic acid] | 0/4 | 0 | 0/4 | 0 | 0/4 | 0 | Photostability: decomposition by exposure to ultraviolet rays [1]: hardly decomposed |
| – | – | – | – | – | – | – | – | 0.050 µg/mL | 0.013 µg/mL | 0.39 µg/mL | 0.025 µg/mL | 0.10 µg/mL | 0.10 µg/mL | Nc1nc(-n2cc(C(=O)O)c(=O)c3cc(F)c(N4CC(O)C4)c(F)c32)c(F)cc1F [Comparative compound 2, 1-(6-amino-3,5-difluoropyridin-2-yl)-6,8-difluoro-7-(3-hydroxyzetidin-1-yl)-1,4-dihydro-4-oxoquinoline-3-carboxylic acid] | 0/4 | 0 | 0/4 | 0 | 0/4 | 0 | minimum growth inhibitory concentration (MIC) (S. aureus Smith): 0.006 µg/mL; minimum growth inhibitory concentration (MIC) (MRSA W200): 0.025 µg/mL |
| 0.39 µg/mL (≈ 1.08 µM) | 0.2 µg/mL (≈ 0.553 µM) | 0.78 µg/mL (≈ 2.16 µM) | 0.1 µg/mL (≈ 0.277 µM) | 0.05 µg/mL (≈ 0.138 µM) | 0.05 µg/mL (≈ 0.138 µM) | 0.1 µg/mL (≈ 0.277 µM) | 0.39 µg/mL (≈ 1.08 µM) | – | – | – | – | – | – | C[C@H]1COc2c(N3CCN(C)CC3)c(F)cc3c(=O)c(C(=O)O)cn1c23 [Levofloxacin, S-(−)-9-fluoro-2,3-dihydro-3-methyl-10-(4-methyl-1-piperazinyl)-7-oxo-7H-pyrido[1,2,3-de][1,4]-benzoxazine-6-carboxylic acid] | – | – | – | – | – | – | – |
| – | – | – | – | – | – | – | – | 0.013 µg/mL | 0.006 µg/mL | 0.39 µg/mL | 0.05 µg/mL | 0.05 µg/mL | 0.05 µg/mL | Nc1nc(-n2cc(C(=O)O)c(=O)c3cc(F)c(N4CC(O)C4)c(Cl)c32)c(F)cc1F.OC1CNC1 [Comparative compound 1, 1-(6-amino-3,5-difluoropyridin-2-yl)-8-chloro-6-fluoro-7-(3-hydroxyazetidin-1-yl)-1,4-dihydro-4-oxoquinoline-3-carboxylic acid.3-hydroxyazetidine salt] | 0/4 | 0 | 0/4 | 0 | 0/4 | 0 | minimum growth inhibitory concentration (MIC) (S. aureus Smith): 0.003 µg/mL; minimum growth inhibitory concentration (MIC) (MRSA W200): 0.006 µg/mL |

The next lines start with the compound.

| SMILES | MIC (S. epidermidis IFO12293) | MIC (S. aureus 209P) | MIC (P. aeruginosa IFO3445) | MIC (B. subtilis ATCC6633) | MIC (K. peumoniae KC-1) | MIC (E. coli NIHJ-JC2) | MIC (S. aureus Smith) | MIC (MRSA W200) | minimum growth inhibitory concentration (MIC) (S. epidermidis IFO12293) | minimum growth inhibitory concentration (MIC) (S. aureus 209P) | minimum growth inhibitory concentration (MIC) (P. aeruginosa IFO3445) | minimum growth inhibitory concentration (MIC) (B. subtilis ATCC6633) | minimum growth inhibitory concentration (MIC) (K. peumoniae KC-1) | minimum growth inhibitory concentration (MIC) (E. coli NIHJ-JC2) | Phototoxicity frequency (female ICR mouse; 0 hour after exposure) | Phototoxicity average score (ears) (female ICR mouse; 0 hour after exposure) | Phototoxicity frequency (female ICR mouse; 24 hours after exposure) | Phototoxicity average score (ears) (female ICR mouse; 24 hours after exposure) | Phototoxicity frequency (female ICR mouse; 48 hours after exposure) | Phototoxicity average score (ears) (female ICR mouse; 48 hours after exposure) | further results |
| --- | --- | --- | --- | --- | --- | --- | --- | --- | --- | --- | --- | --- | --- | --- | --- | --- | --- | --- | --- | --- | --- |
| O=C(O)c1cn(C2CC2)c2cc(N3CCNCC3)c(F)cc2c1=O [Ciprofloxacin, 1-cyclopropyl-6-fluoro-7-(1-piperazinyl)-1,4-dihydro-4-oxoquinoline-3-carboxylic acid] | 0.78 µg/mL (≈ 2.35 µM) | 0.2 µg/mL (≈ 0.604 µM) | 0.39 µg/mL (≈ 1.18 µM) | 0.05 µg/mL (≈ 0.151 µM) | 0.025 µg/mL (≈ 0.0754 µM) | 0.013 µg/mL (≈ 0.0392 µM) | 0.2 µg/mL (≈ 0.604 µM) | 0.78 µg/mL (≈ 2.35 µM) | – | – | – | – | – | – | – | – | – | – | – | – | – |
| NC1CCN(c2nc3c(cc2F)c(=O)c(C(=O)O)cn3-c2ccc(F)cc2F)C1 (racemic) [Tosufloxacin, (±)-7-(3-amino-1-pyrrolidinyl)-6-fluoro-1-(2,4-difluorophenyl)-1,4-dihydro-4-oxo-1,8-naphthyridine-3-carboxylic acid] | – | – | – | – | – | – | – | – | – | – | – | – | – | – | 4/5 | 1.8 | 4/5 | 0.8 | 1/5 | 0.2 | – |
